Patent US4332800A, “Cephem compounds” (Fujisawa Pharmaceutical Co., Ltd., priority 1979, dated 1982)
In brackets after ≈: the same amount, converted by molar mass.

What was measured:
Assay type in all cases: cell-based
B. subtilis ATCC 6633 = assay: Antimicrobial activity, minimal inhibitory concentration (agar streak) against B. subtilis ATCC 6633; conditions: Bacillus subtilis, ATCC6633, 10^8 viable cells per ml, heart infusion agar, 37° C. for 20 hours
Protocol: (§1) Now in order to show the utility of the object compounds (I), test data on anti-microbial activity of a representative compound of the present invention are shown below.
(§2) One loopful of an overnight culture of each test strain in Trypticase-soy broth (10^8 viable cells per ml.) was streaked on heart infusion agar (HI-agar) containing graded concentrations of antibiotics, and the minimal inhibitory concentration (MIC) was expressed in terms of μg/ml after incubation at 37° C. for 20 hours.

Ps. aeruginosa 2 = assay: Antimicrobial activity, minimal inhibitory concentration (agar streak) against Ps. aeruginosa 2; conditions: Pseudomonas aeruginosa, 10^8 viable cells per ml, heart infusion agar, 37° C. for 20 hours
Protocol: as §1, §2

S. marcescens 35 = assay: Antimicrobial activity, minimal inhibitory concentration (agar streak) against S. marcescens 35; conditions: Serratia marcescens, 10^8 viable cells per ml, heart infusion agar, 37° C. for 20 hours
Protocol: as §1, §2

## CCO/N=C(\C(=O)NC1C(=O)N2C(C(=O)[O-])=C(C[n+]3ccc(C(N)=O)cc3)CSC12)c1nsc(N)n1 (stereo not drawn) [(3)]
B. subtilis ATCC 6633
  MIC: 0.78 µg/mL (≈ 1.46 µM)
Ps. aeruginosa 2
  MIC: 25 µg/mL (≈ 46.9 µM)
S. marcescens 35
  MIC: 3.13 µg/mL (≈ 5.88 µM)

## CCO/N=C(\C(=O)NC1C(=O)N2C(C(=O)[O-])=C(C[n+]3ccccc3)CSC12)c1nsc(N)n1 (stereo not drawn) [(1)]
B. subtilis ATCC 6633
  MIC: 0.78 µg/mL (≈ 1.59 µM)
Ps. aeruginosa 2
  MIC: 3.13 µg/mL (≈ 6.39 µM)
S. marcescens 35
  MIC: 1.56 µg/mL (≈ 3.19 µM)

## CCCO/N=C(\C(=O)NC1C(=O)N2C(C(=O)[O-])=C(C[n+]3ccccc3)CSC12)c1nsc(N)n1 (stereo not drawn) [(2)]
B. subtilis ATCC 6633
  MIC: 0.39 µg/mL (≈ 0.774 µM)
Ps. aeruginosa 2
  MIC: 12.5 µg/mL (≈ 24.8 µM)
S. marcescens 35
  MIC: 3.13 µg/mL (≈ 6.22 µM)
